The values below come from patent US11548871B2, “Triazole carbamate pyridyl sulfonamides as LPA receptor antagonists and uses thereof” (Gilead Sciences, Inc., priority 2019, dated 2023).

The target in the test is human LPAR1 (Homo sapiens, UniProt Q92633). As to the kind of experiment: LPAR1 intracellular calcium mobilization assay (antagonist mode).
Chain of human LPAR1 (Q92633 whole entry): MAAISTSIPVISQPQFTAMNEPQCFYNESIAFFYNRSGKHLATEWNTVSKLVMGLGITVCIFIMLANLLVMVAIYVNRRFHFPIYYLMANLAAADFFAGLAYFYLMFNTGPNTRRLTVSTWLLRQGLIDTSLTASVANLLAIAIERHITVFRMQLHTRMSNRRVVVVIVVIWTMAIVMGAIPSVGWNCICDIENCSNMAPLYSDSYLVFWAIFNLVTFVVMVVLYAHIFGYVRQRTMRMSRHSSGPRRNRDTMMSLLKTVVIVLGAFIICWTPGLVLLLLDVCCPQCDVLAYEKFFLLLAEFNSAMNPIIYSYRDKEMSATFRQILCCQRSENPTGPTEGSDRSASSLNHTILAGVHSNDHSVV

Consider `Cc1nc(-c2nnn(C)c2NC(=O)OC(C)c2nccnc2Cl)ccc1NS(C)(=O)=O` (stereo not shown) [Compound 76, 1-(3-chloropyrazin-2-yl)ethyl (1-methyl-4-(6-methyl-5-(methylsulfonamido)pyridin-2-yl)-1H-1,2,3-triazol-5-yl)carbamate], for which the EC50 – broadly, the concentration that produces a half-maximal response – is 929 nM.
As for `Cc1nc(-c2nnn(C)c2NC(=O)OCc2cccc(F)c2)ccc1NS(C)(=O)=O` [Compound 91, 3-fluorobenzyl(1-methyl-4-(6-methyl-5-(methylsulfonamido)pyridin-2-yl)-1H-1,2,3-triazol-5-yl)carbamate], the concentration giving a half-maximal response (EC50) is 72.6 nM.
Take `C[C@@H](OC(=O)Nc1c(-c2ccc(NS(C)(=O)=O)c(F)n2)nnn1C)c1cccnc1Cl` [Compound 153, (R)-1-(2-chloropyridin-3-yl)ethyl (4-(6-fluoro-5-(methylsulfonamido)pyridin-2-yl)-1-methyl-1H-1,2,3-triazol-5-yl)carbamate]: the EC50 was 207 nM.
The result for `Cc1nc(-c2nnn(C)c2NC(=O)OC(C)c2cnc(Cl)nc2Cl)ccc1NS(C)(=O)=O` (stereo not shown) [Compound 133, 1-(2,4-dichloropyrimidin-5-yl)ethyl (1-methyl-4-(6-methyl-5-(methylsulfonamido)pyridin-2-yl)-1H-1,2,3-triazol-5-yl)carbamate] reads 1700 nM; that for `Cc1nc(-c2nnn(C)c2NC(=O)O[C@@H](c2ccccc2)C(F)F)ccc1NS(C)(=O)=O` [Compound 57, (S)-2,2-difluoro-1-phenylethyl (1-methyl-4-(6-methyl-5-(methylsulfonamido)pyridin-2-yl)-1H-1,2,3-triazol-5-yl)carbamate], 48.5 nM; that for `Cc1nc(-c2nnn(C)c2NC(=O)O[C@H](CF)c2cccc(F)c2)ccc1NS(C)(=O)=O` [Compound 43, (S)-2-fluoro-1-(3-fluorophenyl)ethyl (1-methyl-4-(6-methyl-5-(methylsulfonamido)pyridin-2-yl)-1H-1,2,3-triazol-5-yl)carbamate], 18.4 nM.
Turning to `Cc1nc(-c2nnn(C)c2NC(=O)O[C@H](C)c2ccccc2F)ccc1NS(C)(=O)=O` [Compound 93, (R)-1-(2-fluorophenyl)ethyl(1-methyl-4-(6-methyl-5-(methylsulfonamido)pyridin-2-yl)-1H-1,2,3-triazol-5-yl)carbamate], the EC50 amounted to 41.3 nM.
For `C[C@@H](OC(=O)Nc1c(-c2ccc(NS(C)(=O)=O)cn2)nnn1C)c1cccc(F)c1` [Compound 95, (R)-1-(3-fluorophenyl)ethyl(1-methyl-4-(5-(methylsulfonamido)pyridin-2-yl)-1H-1,2,3-triazol-5-yl)carbamate] the value was 28.4 nM; for `Cc1nc(-c2nnn(C)c2NC(=O)OC(c2cccnc2Cl)C(F)F)ccc1NS(C)(=O)=O` (stereo not shown) [Compound 137, 1-(2-chloropyridin-3-yl)-2,2-difluoroethyl (1-methyl-4-(6-methyl-5-(methylsulfonamido)pyridin-2-yl)-1H-1,2,3-triazol-5-yl)carbamate], 493 nM; for `Cc1nc(-c2nnn(C)c2NC(=O)O[C@H](C)c2cccc(F)c2)ccc1NS(=O)(=O)C1CCC1` [Compound 104, (R)-1-(3-fluoro-phenyl)ethyl(4-(5-(cyclobutane-sulfonamido)-6-methylpyridin-2-yl)-1-methyl-1H-1,2,3-triazol-5-yl)carbamate], 434 nM.
The result for `Cc1nc(-c2nnn(C)c2NC(=O)O[C@H](C)c2ccnn2C)ccc1NS(C)(=O)=O` [Compound 135, (R)-1-(1-methyl-1H-pyrazol-5-yl)ethyl (1-methyl-4-(6-methyl-5-(methylsulfonamido)pyridin-2-yl)-1H-1,2,3-triazol-5-yl)carbamate] reads 2980 nM.
For `Cc1nc(-c2nnn(C)c2NC(=O)OCCCC(C)C)ccc1NS(C)(=O)=O` [Compound 29, 4-methylpentyl (1-methyl-4-(6-methyl-5-(methylsulfonamido)pyridin-2-yl)-1H-1,2,3-triazol-5-yl)carbamate] the value was 325 nM.
In the case of `CNS(=O)(=O)Nc1ccc(-c2nnn(C)c2NC(=O)O[C@H](C)c2cc(F)cnc2Cl)nc1` [Compound 162, (R)-1-(2-chloro-5-fluoropyridin-3-yl)ethyl (1-methyl-4-(5-((N-methylsulfamoyl)amino)pyridin-2-yl)-1H-1,2,3-triazol-5-yl)carbamate], the half-maximal effective concentration (EC50) was determined as 81.7 nM.
`Cc1nc(-c2nnn(C)c2NC(=O)O[C@H](C)c2cc(F)cnc2Cl)ccc1NS(C)(=O)=O` [Compound 74, (R)-1-(2-chloro-5-fluoropyridin-3-yl)ethyl (1-methyl-4-(6-methyl-5-(methylsulfonamido)pyridin-2-yl)-1H-1,2,3-triazol-5-yl)carbamate]: the concentration for a half-maximal effect (EC50) came out at 110 nM.
The result for `Cc1nc(-c2nnn(C)c2NC(=O)OC(C)c2ccncc2F)ccc1NS(C)(=O)=O` (stereo not shown) [Compound 132, 1-(3-fluoropyridin-4-yl)ethyl (1-methyl-4-(6-methyl-5-(methylsulfonamido)pyridin-2-yl)-1H-1,2,3-triazol-5-yl)carbamate] reads 1130 nM; that for `COc1nc(-c2nnn(C)c2NC(=O)O[C@H](C)c2ccccc2Cl)ccc1NS(C)(=O)=O` [Compound 4, (R)-1-(2-chlorophenyl)ethyl (4-(6-methoxy-5-(methylsulfonamido)pyridin-2-yl)-1-methyl-1H-1,2,3-triazol-5-yl)carbamate], 61.7 nM; that for `Cc1nc(-c2nnn(C)c2NC(=O)OC(C)c2cncc(F)c2Cl)ccc1NS(C)(=O)=O` (stereo not shown) [Compound 78, 1-(4-chloro-5-fluoropyridin-3-yl)ethyl (1-methyl-4-(6-methyl-5-(methylsulfonamido)pyridin-2-yl)-1H-1,2,3-triazol-5-yl)carbamate], 378 nM.
The result for `[2H]C([2H])([2H])N(c1ccc(-c2nnn(C)c2NC(=O)O[C@H](C)c2cccnc2Cl)nc1C)S(C)(=O)=O` [Compound 164, (R)-1-(2-chloropyridin-3-yl)ethyl (1-methyl-4-(6-methyl-5-(N-(methyl-d3)methylsulfonamido)pyridin-2-yl)-1H-1,2,3-triazol-5-yl)carbamate] reads 438 nM.
As to `Cc1nc(-c2nnn(C)c2NC(=O)O[C@H](C)c2ccccc2Cl)ccc1NS(C)(=O)=O` [Compound 11, (R)-1-(2-chlorophenyl)ethyl (1-methyl-4-(6-methyl-5-(methylsulfonamido)pyridin-2-yl)-1H-1,2,3-triazol-5-yl)carbamate], the concentration giving a half-maximal response (EC50) amounted to 23.8 nM.
The result for `COc1ncccc1[C@@H](C)OC(=O)Nc1c(-c2ccc(NS(C)(=O)=O)c(C)n2)nnn1C` [Compound 122, (R)-1-(2-methoxypyridin-3-yl)ethyl (1-methyl-4-(6-methyl-5-(methylsulfonamido)pyridin-2-yl)-1H-1,2,3-triazol-5-yl)carbamate] reads 920 nM; that for `CCCCCCOC(=O)Nc1c(-c2ccc(NS(C)(=O)=O)c(C)n2)nnn1C` [Compound 31, hexyl (1-methyl-4-(6-methyl-5-(methylsulfonamido)pyridin-2-yl)-1H-1,2,3-triazol-5-yl)carbamate], 1220 nM; that for `C[C@@H](OC(=O)Nc1c(-c2ccc(NS(C)(=O)=O)c(Cl)n2)nnn1C)c1ccccc1` [Compound 2, (R)-1-phenylethyl (4-(6-chloro-5-(methylsulfonamido)pyridin-2-yl)-1-methyl-1H-1,2,3-triazol-5-yl)carbamate], 270 nM.
